# Test results from US20240327385A1, “SUBSTITUTED PIPERIDINE COMPOUNDS AS RENIN INHIBITORS” (priority 2023, published 2024).
# Target: human recombinant renin (Homo sapiens (Human), UniProt P00797)
# Test: human renin activity inhibition (SensoLyte 520 Renin Assay Kit Fluorimetric)
# Format: biochemical
# Settings: 30 min preincubation at 37° C., fluorescence at 530 nm after 15 min at 37° C., read-out: IC50 (nM), inhibitory effect on human renin activity
# Procedure: The exemplary compounds of the disclosure were tested for their inhibitory effects on human renin activity, using a commercially available renin assay kit (SensoLyte® 520 Renin Assay Kit Fluorimetric), following the manufacture's manual.
# Briefly, human recombinant renin (from the kit) was incubated with the compound of the disclosure or buffer for 30 min at 37° C. before substrate addition. Fluorescence intensity was measured at 530 nm after an incubation of 15 min at 37° C. Data was analyzed by Prism and fitted into a sigmodal curve for IC50 calculation.
# Sequence of human recombinant renin (P00797 67-406): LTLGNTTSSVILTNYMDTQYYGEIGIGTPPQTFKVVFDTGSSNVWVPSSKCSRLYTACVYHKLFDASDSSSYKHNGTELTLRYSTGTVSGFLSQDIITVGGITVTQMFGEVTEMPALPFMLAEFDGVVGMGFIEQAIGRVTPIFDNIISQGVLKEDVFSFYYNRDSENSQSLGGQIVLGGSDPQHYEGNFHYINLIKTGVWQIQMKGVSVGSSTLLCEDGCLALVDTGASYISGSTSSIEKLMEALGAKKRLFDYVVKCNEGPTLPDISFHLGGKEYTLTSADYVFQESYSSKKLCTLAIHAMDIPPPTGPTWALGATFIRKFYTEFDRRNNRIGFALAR
row,IC50 [nM],Structure (SMILES)
1,< 10,"CO[C@H]1C[C@H](Nc2cc(C3CC3)cnc2C(=O)N(CC(C)C)[C@@H]2CNCC(c3nnc(C4COC4)o3)C2)C1 (stereo in doubt) [Compound 34, (3S)—{N-(2-methylpropyl), N-{5-cyclopropyl-3-[3-(trans-methoxy)cyclobutyl]amino}pyridine-2-carbonyl}amino-(5R)-[5-(oxetan-3-yl)-1,3,4-oxadiazol-2-yl]-piperidine]"
2,< 20,"Cc1nnc(C2CNC[C@@H](N(CC(C)C)C(=O)c3ncc(C4CC4)cc3NC3COC3)C2)o1 (stereo in doubt) [Compound 37, (3S)—{N-(2-methylpropyl), N-[5-cyclopropyl-3-(oxetan-3-yl)amino]pyridine-2-carbonyl}amino-(5R)-(5-methyl-1,3,4-oxadiazol-2-yl)-piperidine]"
3,< 50,"Cc1noc(C2CNC[C@@H](N(CC(C)C)C(=O)c3ncc(C4CC4)cc3NC3COC3)C2)n1 (stereo in doubt) [Compound 38, (3S)—{N-(2-methylpropyl), N-[5-cyclopropyl-3-(oxetan-3-yl)amino]pyridine-2-carbonyl}amino-(5R)-(3-methyl-1,2,4-oxadiazol-5-yl)-piperidine]"
4,< 10,"CO[C@H]1C[C@H](Nc2cc(C3CC3)cnc2C(=O)N(CC2CC2)[C@@H]2CNCC(c3nnco3)C2)C1 (stereo in doubt) [Compound 44, (3S)—{N-cyclopropylmethyl, N-{5-cyclopropyl-3-[3-(trans-methoxy)cyclobutyl]amino}pyridine-2-carbonyl}amino-(5R)-(1,3,4-oxadiazol-2-yl)-piperidine]"
5,1.8,"CO[C@H]1C[C@H](Nc2cc(C3CC3)cnc2C(=O)N(CC(C)C)[C@@H]2CNC[C@H](C(=O)N3CC(F)C3)C2)C1 [Compound 10, (3S)—{N-(2-methylpropyl), N-{5-cyclopropyl-3-[3-(trans-methoxy)cyclobutyl]amino}pyridine-2-carbonyl}amino-(5R)-(3-fluoroazetidine-N-carbonyl)-piperidine]"
6,1.2,"CO[C@H]1C[C@H](Nc2cc(C3CC3)cnc2C(=O)N(CC(C)C)C2CNCC(C(=O)N3CCC(F)(F)C3)C2)C1 (stereo partly drawn) [Compound 11, (3S)—{N-(2-methylpropyl), N-{5-cyclopropyl-3-[3-(trans-methoxy)cyclobutyl]amino}pyridine-2-carbonyl}amino-(5R)-(3,3-difluoropyrrolidine-N-carbonyl)-piperidine]"
7,1.6,"CO[C@H]1C[C@H](Nc2cc(C3CC3)cnc2C(=O)N(CC(C)C)C2CNCC(C(=O)N3CCC(F)(F)CC3)C2)C1 (stereo partly drawn) [Compound 12, (3S)—{N-(2-methylpropyl), N-{5-cyclopropyl-3-[3-(trans-methoxy)cyclobutyl]amino}pyridine-2-carbonyl}amino-(5R)-(4,4-difluoropiperidine-N-carbonyl)-piperidine]"
8,3.8,"CO[C@H]1C[C@H](Nc2cc(C3CC3)cnc2C(=O)N(CC(C)C)C2CNCC(C(=O)N3CCC(OC(F)(F)F)CC3)C2)C1 (stereo partly drawn) [Compound 13, (3S)—{N-(2-methylpropyl), N-{5-cyclopropyl-3-[3-(trans-methoxy)cyclobutyl]amino}pyridine-2-carbonyl}amino-(5R)-(4-trifluoromethoxypiperidine-N-carbonyl)-piperidine]"
9,1.2,"CO[C@H]1C[C@H](Nc2cc(C3CC3)cnc2C(=O)N(CC(C)C)C2CNCC(C(=O)N3CCOC[C@H]3C)C2)C1 (stereo partly drawn) [Compound 14, (3S)—{N-(2-methylpropyl), N-{5-cyclopropyl-3-[3-(trans-methoxy)cyclobutyl]amino}pyridine-2-carbonyl}amino-(5R)-[(3R)-methylmorpholine-N-carbonyl]-piperidine]"
10,1,"CO[C@H]1C[C@H](Nc2cc(C3CC3)cnc2C(=O)N(CC(C)C)C2CNCC(C(=O)N3CCOC[C@@H]3C)C2)C1 (stereo partly drawn) [Compound 15, (3S)—{N-(2-methylpropyl), N-{5-cyclopropyl-3-[3-(trans-methoxy)cyclobutyl]amino}pyridine-2-carbonyl}amino-(5R)-[(3S)-methylmorpholine-N-carbonyl]-piperidine]"
11,1.5,"CO[C@H]1C[C@H](Nc2nc(C(C)(C)C)ncc2C(=O)N(CC(C)C)C2CNCC(C(=O)N3CCOCC3)C2)C1 (stereo partly drawn) [Compound 17, (3S)—{N-(2-methylpropyl), N-{2-tert-butyl-3-[3-(trans-methoxy)cyclobutyl]amino}pyrimidine-5-carbonyl}amino-(5R)-(morpholine-N-carbonyl)-piperidine]"
12,1.2,"CO[C@H]1C[C@H](Nc2cc(C3CC3)cnc2C(=O)N(CC(C)C)C2CNCC(C(=O)N3CCOCC3)C2)C1 (stereo partly drawn) [Compound 18, (3S)—{N-(2-methylpropyl), N-{5-cyclopropyl-3-[3-(trans-methoxy)cyclobutyl]amino}pyridine-2-carbonyl}amino-(5R)-(morpholine-N-carbonyl)-piperidine]"
13,1.5,"CO[C@H]1C[C@@H](Nc2cc(C3CC3)cnc2C(=O)N(CC(C)C)C2CNCC(C(=O)N3CCOCC3)C2)C1 (stereo partly drawn) [Compound 19, (3S)—{N-(2-methylpropyl), N-{5-cyclopropyl-3-[3-(cis-methoxy)cyclobutyl]amino}pyridine-2-carbonyl}amino-(5R)-(morpholine-N-carbonyl)-piperidine]"
14,1.9,"CC(C)CN(C(=O)c1ncc(C2CC2)cc1NC1CCC1)C1CNCC(C(=O)N2CCOCC2)C1 [Compound 20, (3S)—[N-(2-methylpropyl), N-(5-cyclopropyl-3-cyclobutylamino)pyridine-2-carbonyl]amino-(5R)-(morpholine-N-carbonyl)-piperidine]"
15,1.4,"CC(C)CN(C(=O)c1ncc(C2CC2)cc1NC1CC1)C1CNCC(C(=O)N2CCOC[C@@H]2C)C1 (stereo partly drawn) [Compound 21, (3S)—[N-(2-methylpropyl), N-(5-cyclopropyl-3-cyclopropylamino)pyridine-2-carbonyl]amino-(5R)-[(3S)-methylmorpholine-N-carbonyl]-piperidine]"
16,1.3,"CO[C@H]1C[C@H](Nc2cc(C3CC3)cnc2C(=O)N(CC(C)C)C2CNC[C@H](c3nnc(C)o3)C2)C1 (stereo partly drawn) [Compound 22, (3S)—{N-(2-methylpropyl), N-{5-cyclopropyl-3-[3-(trans-methoxy)cyclobutyl]amino}pyridine-2-carbonyl}amino-(5R)-(5-methyl-1,3,4-oxadiazol-2-yl)-piperidine]"
17,1.2,"CO[C@H]1C[C@H](Nc2cc(C3CC3)cnc2C(=O)N(CC(C)C)C2CNC[C@H](c3nnc(C4CC4)o3)C2)C1 (stereo partly drawn) [Compound 23, (3S)—{N-(2-methylpropyl), N-{5-cyclopropyl-3-[3-(trans-methoxy)cyclobutyl]amino}pyridine-2-carbonyl}amino-(5R)-(5-cyclopropyl-1,3,4-oxadiazol-2-yl)-piperidine]"
18,1,"CO[C@H]1C[C@H](Nc2cc(C3CC3)cnc2C(=O)N(CC(C)C)C2CNC[C@H](c3nnc(C4CC(F)(F)C4)o3)C2)C1 (stereo partly drawn) [Compound 24, (3S)—{N-(2-methylpropyl), N-{5-cyclopropyl-3-[3-(trans-methoxy)cyclobutyl]amino}pyridine-2-carbonyl}amino-(5R)-(3,3-diflurorocyclobutyl-1,3,4-oxadiazol-2-yl)-piperidine]"
19,< 10,"CC(C)CN(C(=O)c1ncc(C2CC2)cc1NC1CC1)[C@@H]1CNC[C@H](C(=O)N2CCOCC2)C1 [Compound 25, (3S)—[N-(2-methylpropyl), N-(5-cyclopropyl-3-cyclopropylamino)pyridine-2-carbonyl]amino-(5R)-(morpholine-N-carbonyl)-piperidine]"
20,< 20,"CO[C@H]1C[C@H](Nc2cc(C3CC3)cnc2C(=O)N(CC(C)C)[C@H]2CCCNC2)C1 [Compound 26, (3S)—{N-(2-methylpropyl), N-{5-cyclopropyl-3-[3-(trans-methoxy)cyclobutyl]amino}pyridine-2-carbonyl}amino-piperidine]"
21,< 250,"CC[C@H]1COCCN1C(=O)[C@H]1CNC[C@@H](N(CC(C)C)C(=O)c2ncc(C3CC3)cc2N[C@H]2C[C@H](OC)C2)C1 [Compound 27, (3S)—{N-(2-methylpropyl), N-{5-cyclopropyl-3-[3-(trans-methoxy)cyclobutyl]amino}pyridine-2-carbonyl}amino-(5R)-[(3S)-ethylmorpholine-N-carbonyl]-piperidine]"
22,< 10,"CO[C@H]1C[C@H](Nc2cc(C3CC3)cnc2C(=O)N(CC(C)C)[C@@H]2CNC[C@H](c3noc(C)n3)C2)C1 [Compound 28, (3S)—{N-(2-methylpropyl), N-{5-cyclopropyl-3-[3-(trans-methoxy)cyclobutyl]amino}pyridine-2-carbonyl}amino-(5R)-(5-methyl-1,2,4-oxadiazol-3-yl)-piperidine]"
23,< 10,"CO[C@H]1C[C@H](Nc2cc(C3CC3)cnc2C(=O)N(CC(C)C)[C@@H]2CNC[C@H](c3nc(C)no3)C2)C1 [Compound 29, (3S)—{N-(2-methylpropyl), N-{5-cyclopropyl-3-[3-(trans-methoxy)cyclobutyl]amino}pyridine-2-carbonyl}amino-(5R)-(3-methyl-1,2,4-oxadiazol-5-yl)-piperidine]"
24,< 10,CC(C)CN(C(=O)c1ncc(C2CC2)cc1NC1COC1)[C@@H]1CNC[C@H](C(=O)N2CCOCC2)C1 [Compound 30]
25,< 10,"CO[C@H]1C[C@H](Nc2cccnc2C(=O)N(CC(C)C)[C@@H]2CNCC(c3nnc(C4CC4)o3)C2)C1 (stereo partly drawn) [Compound 31, (3S)—{N-(2-methylpropyl), N-[3-(3-trans-methoxy)cyclobutyl]amino-pyridine-2-carbonyl}amino-(5R)-(5-cyclopropyl-1,3,4-oxadiazol-2-yl)-piperidine]"
26,< 10,"CC(C)CN(C(=O)c1ncc(C2CC2)cc1NC1COC1)[C@@H]1CNCC(c2nnc(C3CC3)o2)C1 (stereo partly drawn) [Compound 32, (3S)—{N-(2-methylpropyl), N-[5-cyclopropyl-3-(oxetan-3-yl)amino]pyridine-2-carbonyl}amino-(5R)-(5-cyclopropyl-1,3,4-oxadiazol-2-yl)-piperidine]"
